Results published in publication PMC8944975, “Secretin Receptor as a Target in Gastrointestinal Cancer: Expression Analysis and Ligand Development” (Biomedicines, 2022).

Target: human SCTR (Homo sapiens, UniProt P47872)
Experiment: agonist-induced β-arr2-GFP translocation
Format: cell-based
Set-up: expressed in transfected cells; host or cells: U2OS (human osteosarcoma), stably co-transfected with β-arrestin2-GFP
Details: Supplementary Tables S1 and S2, decimal comma, '-' not detectable (Figure 4); for β-arrestin2-GFP agonism efficacy: % of wild-type secretin; for EC50: U2OS-SCTR/β-arr2-GFP cells, 20 min at 37 °C, mean of at least three independent experiments in duplicates, read-out: β-arrestin2-GFP agonism potency
Excerpt: U2OS-SCTR/β-arr2-GFP: human osteosarcoma cell line U2OS (purchased from ATCC/LGC Standards, Wesel, Germany) were stably transfected with plasmids encoding SCTR (Homo sapiens) and the fusion protein β-arrestin2-green fluorescent protein (GFP) (Rattus norvegicus-Aequorea victoria) (β-arr2-GFP).
To evaluate reactivity of human SCTR exposed to different ligand variants, intracellular translocation of a fusion protein of β-arrestin2 and green fluorescent protein was utilized. For evaluation of activation, receptor-mediated recruitment of cytoplasmic β-arr2-GFP was monitored through its translocation into condensed intracellular vesicles. The extent of translocation events was quantified by determining the increasing granularization of the intracellular fluorescence utilizing an automated high-throughput microscope in combination with computational algorithms to estimate potency (EC50) and efficacy, thus characterizing ligand-SCTR interaction. U2OS-SCTR/β-arr2-GFP cells were seeded in 96-well cell culture plates to 60–80% confluence. On the following day, preceding stimulation, cells were incubated for one hour in serum-free medium. Ligand variants were applied as serial dilutions in assay buffer C1. After preincubation, supernatant was discarded by tapping plates overhead repeatedly. For stimulation, 50 µL of ligand dilution was applied per well in duplicates and incubated for 20 min at 37 °C. Successively, cells were fixed by applying 4% buffered formaldehyde (Herbeta Arzneimittel, Berlin, Germany) for 10 min at room temperature and consecutively permeabilized for 10 min at room temperature with 0.1% TritonX-100 in PBS, containing DAPI (4′,6-Diamidin-2-phenylindol, SigmaAldrich, Deisenhofen, Germany, 1 µg/mL) to counterstain nuclei. Microscopic images were recorded by an IN Cell Analyzer 1000 (GE Healthcare, Reading, UK) with 20× magnification at 5 frames per well in a 96-well format. Image processing was performed with IN Cell Investigator software (GE Healthcare, Reading, UK), applying the provided granularity algorithm. The output of the analysis was indicated as vesicle area/cell and was utilized for calculation of concentration–response curves. Parameters derived from curve fitting included the concentration of half-maximal activity (EC50), and intrinsic activity. Intrinsic activity was normalized defining reaction to non-modified wild type secretin as the 100% curve maximum value.

Chain of human SCTR (P47872 23-440): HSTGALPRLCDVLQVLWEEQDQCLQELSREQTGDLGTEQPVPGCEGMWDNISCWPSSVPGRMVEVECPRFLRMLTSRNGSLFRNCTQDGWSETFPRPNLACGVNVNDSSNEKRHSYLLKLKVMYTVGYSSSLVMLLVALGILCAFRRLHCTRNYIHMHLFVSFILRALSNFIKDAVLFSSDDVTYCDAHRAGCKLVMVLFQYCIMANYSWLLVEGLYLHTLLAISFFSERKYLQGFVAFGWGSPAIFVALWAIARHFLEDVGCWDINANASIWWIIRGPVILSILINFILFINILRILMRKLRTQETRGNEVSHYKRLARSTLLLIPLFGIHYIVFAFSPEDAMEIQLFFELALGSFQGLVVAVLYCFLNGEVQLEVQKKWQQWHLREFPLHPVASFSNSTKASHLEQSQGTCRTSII

β-arrestin2-GFP agonism efficacy	EC50 [nM]	Compound
100,73 % Sec	2.28	CC(C)C[C@H](NC(=O)CNC(=O)[C@H](CCC(N)=O)NC(=O)[C@H](CC(C)C)NC(=O)[C@H](CC(C)C)NC(=O)[C@H](CCCNC(=N)N)NC(=O)[C@H](CCC(=O)O)NC(=O)[C@H](CC(C)C)NC(=O)[C@H](CCCNC(=N)N)NC(=O)[C@H](C)NC(=O)CNC(=O)[C@H](CCC(=O)O)NC(=O)[C@H](CCCNC(=N)N)NC(=O)[C@H](CC(C)C)NC(=O)[C@H](CCCNC(=N)N)NC(=O)[C@H](CO)NC(=O)[C@H](CC(C)C)NC(=O)[C@H](CCC(=O)O)NC(=O)[C@H](CO)NC(=O)[C@@H](NC(=O)[C@H](Cc1ccccc1)NC(=O)[C@@H](NC(=O)CNC(=O)[C@H](CC(=O)O)NC(=O)[C@H](CO)NC(=O)[C@@H](N)Cc1c[nH]cn1)[C@@H](C)O)[C@@H](C)O)C(=O)N[C@H](C(=O)O)C(C)C [Peptide 71]
104,60 % Sec	3.32	CC(C)C[C@H](NC(=O)CNC(=O)[C@H](CCC(N)=O)NC(=O)[C@H](CC(C)C)NC(=O)[C@H](CC(C)C)NC(=O)[C@H](CCCNC(=N)N)NC(=O)[C@H](CCC(N)=O)NC(=O)[C@H](CC(C)C)NC(=O)[C@H](CCCNC(=N)N)NC(=O)[C@H](C)NC(=O)[C@H](CC(C)C)NC(=O)[C@H](CCC(=O)O)NC(=O)[C@H](CCCNC(=N)N)NC(=O)[C@H](CC(C)C)NC(=O)[C@H](CCCNC(=N)N)NC(=O)[C@H](CO)NC(=O)[C@H](CC(C)C)NC(=O)[C@H](CCC(=O)O)NC(=O)[C@H](CO)NC(=O)[C@@H](NC(=O)[C@H](Cc1ccccc1)NC(=O)[C@@H](NC(=O)CNC(=O)[C@H](CC(=O)O)NC(=O)[C@H](CO)NC(=O)[C@@H](N)Cc1c[nH]cn1)[C@@H](C)O)[C@@H](C)O)C(=O)N[C@H](C(=O)O)C(C)C [Peptide 72]
100,40 % Sec	–	CC(C)C[C@H](NC(=O)CNC(=O)[C@H](CCC(N)=O)NC(=O)[C@H](CC(C)C)NC(=O)[C@H](CC(C)C)NC(=O)[C@H](CCCNC(=N)N)NC(=O)[C@H](CCC(N)=O)NC(=O)[C@H](CC(C)C)NC(=O)[C@H](CCCNC(=N)N)NC(=O)[C@H](C)NC(=O)CNC(=O)[C@H](CCC(=O)O)NC(=O)[C@H](CCCNC(=N)N)NC(=O)[C@H](CC(C)C)NC(=O)[C@H](CCCNC(=N)N)NC(=O)[C@H](CO)NC(=O)[C@H](CC(C)C)NC(=O)[C@@H](CCC(=O)O)NC(=O)[C@H](CO)NC(=O)[C@@H](NC(=O)[C@H](Cc1ccccc1)NC(=O)[C@@H](NC(=O)CNC(=O)[C@H](CC(=O)O)NC(=O)[C@H](CO)NC(=O)[C@@H](N)Cc1c[nH]cn1)[C@@H](C)O)[C@@H](C)O)C(=O)N[C@H](C(=O)O)C(C)C [Peptide 93]
89,07 % Sec	–	CC(C)C[C@H](NC(=O)CNC(=O)[C@H](CCC(N)=O)NC(=O)[C@H](CC(C)C)NC(=O)[C@H](CC(C)C)NC(=O)[C@H](CCCNC(=N)N)NC(=O)[C@H](CCC(N)=O)NC(=O)[C@H](CC(C)C)NC(=O)[C@H](CCCNC(=N)N)NC(=O)[C@H](C)NC(=O)CNC(=O)[C@H](CCC(=O)O)NC(=O)[C@H](CCCNC(=N)N)NC(=O)[C@H](CC(C)C)NC(=O)[C@H](CCCNC(=N)N)NC(=O)[C@H](CO)NC(=O)[C@H](CC(C)C)NC(=O)[C@H](CCC(=O)O)NC(=O)[C@H](CO)NC(=O)[C@@H](NC(=O)[C@H](Cc1ccccc1)NC(=O)[C@@H](NC(=O)CNC(=O)[C@@H](CC(=O)O)NC(=O)[C@H](CO)NC(=O)[C@@H](N)Cc1c[nH]cn1)[C@@H](C)O)[C@@H](C)O)C(=O)N[C@H](C(=O)O)C(C)C [Peptide 88]
96,57 % Sec	39.1	CC(C)C[C@H](NC(=O)CNC(=O)[C@H](CCC(N)=O)NC(=O)[C@H](CC(C)C)NC(=O)[C@H](CC(C)C)NC(=O)[C@H](CCCNC(=N)N)NC(=O)[C@H](CCC(N)=O)NC(=O)[C@H](CC(C)C)NC(=O)[C@H](CCCNC(=N)N)NC(=O)[C@H](C)NC(=O)CNC(=O)[C@H](CCC(=O)O)NC(=O)[C@H](CCCNC(=N)N)NC(=O)[C@H](CC(C)C)NC(=O)[C@H](CCCNC(=N)N)NC(=O)[C@H](CO)NC(=O)[C@H](CC(C)C)NC(=O)[C@H](CCC(=O)O)NC(=O)[C@H](CO)NC(=O)[C@@H](NC(=O)[C@H](Cc1ccccc1)NC(=O)[C@@H](NC(=O)CNC(=O)[C@H](CC(=O)O)NC(=O)[C@H](CO)NC(=O)[C@@H]1CCCN1)[C@@H](C)O)[C@@H](C)O)C(=O)N[C@H](C(=O)O)C(C)C [Peptide 73]
106,23 % Sec	3.37	CC(C)C[C@H](NC(=O)CNC(=O)[C@H](CCC(N)=O)NC(=O)[C@H](CC(C)C)NC(=O)[C@H](CC(C)C)NC(=O)[C@H](CCCNC(=N)N)NC(=O)[C@H](CCC(N)=O)NC(=O)[C@H](CC(C)C)NC(=O)[C@H](CCCNC(=N)N)NC(=O)[C@H](C)NC(=O)CNC(=O)[C@H](CCC(=O)O)NC(=O)[C@H](CCCNC(=N)N)NC(=O)[C@H](CC(C)C)NC(=O)[C@H](CCCNC(=N)N)NC(=O)[C@H](CO)NC(=O)[C@H](CC(C)C)NC(=O)[C@H](CCC(=O)O)NC(=O)[C@H](CO)NC(=O)[C@@H](NC(=O)[C@H](Cc1ccccc1)NC(=O)[C@@H](NC(=O)CNC(=O)[C@H](CC(=O)O)NC(=O)[C@@H]1CCCN1C(=O)[C@@H](N)Cc1c[nH]cn1)[C@@H](C)O)[C@@H](C)O)C(=O)N[C@H](C(=O)O)C(C)C [Peptide 74]
111,23 % Sec	4.52	CC(C)C[C@H](NC(=O)CNC(=O)[C@H](CCC(N)=O)NC(=O)[C@H](CC(C)C)NC(=O)[C@H](CC(C)C)NC(=O)[C@H](CCCNC(=N)N)NC(=O)[C@H](CCC(N)=O)NC(=O)[C@H](CC(C)C)NC(=O)[C@H](CCCNC(=N)N)NC(=O)[C@H](C)NC(=O)CNC(=O)[C@H](CC(=O)O)NC(=O)[C@H](CCCNC(=N)N)NC(=O)[C@H](CC(C)C)NC(=O)[C@H](CCCNC(=N)N)NC(=O)[C@H](CO)NC(=O)[C@H](CC(C)C)NC(=O)[C@H](CCC(=O)O)NC(=O)[C@H](CO)NC(=O)[C@@H](NC(=O)[C@H](Cc1ccccc1)NC(=O)[C@@H](NC(=O)CNC(=O)[C@H](CC(=O)O)NC(=O)[C@H](CO)NC(=O)[C@@H](N)Cc1c[nH]cn1)[C@@H](C)O)[C@@H](C)O)C(=O)N[C@H](C(=O)O)C(C)C [Peptide 69]
95,03 % Sec	72.6	CC(C)C[C@H](NC(=O)[C@H](CCCNC(=N)N)NC(=O)[C@H](C)NC(=O)CNC(=O)[C@H](CCC(=O)O)NC(=O)[C@H](CCCNC(=N)N)NC(=O)[C@H](CC(C)C)NC(=O)[C@H](CCCNC(=N)N)NC(=O)[C@H](CO)NC(=O)[C@H](CC(C)C)NC(=O)[C@H](CCC(=O)O)NC(=O)[C@H](CO)NC(=O)[C@@H](NC(=O)[C@H](Cc1ccccc1)NC(=O)[C@@H](NC(=O)CNC(=O)[C@H](CC(=O)O)NC(=O)[C@H](CO)NC(=O)[C@@H](N)Cc1c[nH]cn1)[C@@H](C)O)[C@@H](C)O)C(=O)N[C@@H](CCC(N)=O)C(=O)N[C@@H](CCCNC(=N)N)C(=O)N[C@@H](CC(C)C)C(=O)N[C@@H](CC(C)C)C(=O)N[C@@H](CCC(N)=O)C(=O)NCC(=O)N1CCC[C@H]1C(=O)N[C@H](C(=O)O)C(C)C [Peptide 84]
103,17 % Sec	22.1	CC(C)C[C@H](NC(=O)[C@H](CCCNC(=N)N)NC(=O)[C@H](C)NC(=O)CNC(=O)[C@H](CCC(=O)O)NC(=O)[C@H](CCCNC(=N)N)NC(=O)[C@H](CC(C)C)NC(=O)[C@H](CCCNC(=N)N)NC(=O)[C@H](CO)NC(=O)[C@H](CC(C)C)NC(=O)[C@H](CCC(=O)O)NC(=O)[C@H](CO)NC(=O)[C@@H](NC(=O)[C@H](Cc1ccccc1)NC(=O)[C@@H](NC(=O)CNC(=O)[C@H](CC(=O)O)NC(=O)[C@H](CO)NC(=O)[C@@H](N)Cc1c[nH]cn1)[C@@H](C)O)[C@@H](C)O)C(=O)N[C@@H](CCC(N)=O)C(=O)N[C@@H](CCCNC(=N)N)C(=O)N[C@@H](CC(C)C)C(=O)N[C@@H](CC(C)C)C(=O)N[C@@H](CCC(N)=O)C(=O)N1CCC[C@H]1C(=O)N[C@@H](CC(C)C)C(=O)N[C@H](C(=O)O)C(C)C [Peptide 83]
